The record followed here is patent US9309263B2, “Fused multi-cyclic sulfone compounds as inhibitors of beta-secretase and methods of use thereof” (AMGEN INC., priority 2013, dated 2016).

Where two headings read alike, the source gives them in different places. Where only a bound is given, the exact number is not on record here.

The target of test [1] is Beta Secretase enzyme (BACE) (Homo sapiens, UniProt P56817). As to the kind of experiment: In vitro enzymatic BACE FRET assay. The class given is biochemical. As to conditions: read-out: BACE1 FRET assay IC50. The method in brief:
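Cleavage of a quenched 50 nM FRET peptide substrate, read as fluorescence (excitation 488 nm, […]) after 1 h and Tris quench to neutrality. Buffer: 0.05 M acetate pH 4.2 with 10% DMSO and 100 uM genapol. Inhibitor dilutions were pre-incubated 1 h with 0.2 nM enzyme.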

Test [2] relates to Aβ 40 in conditioned medium of cells stably expressing Amyloid Precursor Protein (APP). As to the kind of experiment: In vitro BACE cell-based assay (Aβ 40 sandwich ELISA). As to conditions: Homo sapiens, HEK293. The method in brief: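 Aβ40 in conditioned medium measured by pAb40/biotin-6E10 sandwich ELISA with time-resolved europium fluorescence, after 24 h exposure of stable APP cells to compounds (10-point series starting 100 μM or 10 μM; 0.1% DMSO). IC50 fitted from percent of control against concentration.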
On the technique in general: In an ELISA, binding on a coated surface is turned into a signal by an enzyme label.

A further test has as its target Cathepsin D (Cat D) (Homo sapiens, UniProt P07339). Description: In vitro enzymatic Cathepsin D (Cat D) FRET assay. The class given is biochemical. Put shortly: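 FRET peptide substrate (20 nM) is cleaved by CHO-derived recombinant enzyme (9 nM) for 1 h after a 1 h inhibitor pre-incubation, at pH 3.5 in citrate buffer with 5 mM CHAPS and 10% DMSO. Tris addition ends the reaction; fluorescence measured at 500 nm excitation, 580 nm emission.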

The mark [3] stands for this setting: text summary referring to data in Table 2.
Setting [4] is: average IC50, in vitro enzymatic BACE FRET assay.
Setting [5] is: average IC50, HEK cell assay, Aβ 40 readout.
[6] abbreviates: Cathepsin D FRET assay, read-out: CatD IC50.

As a reminder, the IC50 is the concentration that inhibits the measured activity by half.

Chain of Beta Secretase enzyme (BACE) (P56817 46-501): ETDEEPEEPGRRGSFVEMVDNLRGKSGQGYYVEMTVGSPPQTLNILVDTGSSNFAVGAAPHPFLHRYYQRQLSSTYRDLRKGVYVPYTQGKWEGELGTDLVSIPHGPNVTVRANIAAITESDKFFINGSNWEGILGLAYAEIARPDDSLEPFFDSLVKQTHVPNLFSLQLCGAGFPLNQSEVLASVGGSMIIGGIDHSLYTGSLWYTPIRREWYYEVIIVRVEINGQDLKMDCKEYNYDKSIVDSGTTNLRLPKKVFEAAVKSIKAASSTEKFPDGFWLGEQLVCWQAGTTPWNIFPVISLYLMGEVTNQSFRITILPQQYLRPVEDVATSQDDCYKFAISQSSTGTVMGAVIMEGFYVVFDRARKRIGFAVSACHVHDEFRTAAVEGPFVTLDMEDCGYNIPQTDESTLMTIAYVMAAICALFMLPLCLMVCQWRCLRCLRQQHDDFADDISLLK
Chain of Cathepsin D (Cat D) (P07339 65-412, species assumed): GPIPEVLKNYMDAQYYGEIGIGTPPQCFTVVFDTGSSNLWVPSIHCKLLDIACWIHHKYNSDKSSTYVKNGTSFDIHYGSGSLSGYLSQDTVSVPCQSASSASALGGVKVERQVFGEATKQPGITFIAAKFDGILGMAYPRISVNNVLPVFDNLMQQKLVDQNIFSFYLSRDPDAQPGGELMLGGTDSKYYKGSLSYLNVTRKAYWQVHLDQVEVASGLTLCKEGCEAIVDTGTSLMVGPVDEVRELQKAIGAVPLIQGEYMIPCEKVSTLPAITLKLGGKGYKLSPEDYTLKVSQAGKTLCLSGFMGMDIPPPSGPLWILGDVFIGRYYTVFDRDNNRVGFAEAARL

In the case of `COc1cnc(C(=O)Nc2ccc3c(c2)[C@@]2(C)N=C(N)C(C)(C)S(=O)(=O)[C@]2(F)CCO3)cn1` [Example 67, N-((4aR,11bR)-2-amino-4a-fluoro-3,3,11b-trimethyl-4,4-dioxido-4a,5,6,11b-tetrahydro-3H-[1]benzoxepino[4,5-b][1,4]thiazin-10-yl)-5-methoxy-2-pyrazinecarboxamide], the IC50 is 0.022 µM in test [1] (average IC50); 0.115 µM in test [2] (HEK cell, average IC50); 2920 µM on Cathepsin D (Cat D) (read-out: CatD IC50); above 1200 µM at Cathepsin D (Cat D) (setting [3]).

With `COCCOc1cnc2c(Nc3ccc4c(c3)[C@@]3(C)N=C(N)C(C)(C)S(=O)(=O)[C@@H]3C[C@H](C)O4)nccc2n1` [Example 139, (4aR,6S,11bR)-N^~10^~-(2-(2-methoxyethoxy)pyrido[3,4-b]pyrazin-5-yl)-3,3,6,11b-tetramethyl-4a,5,6,11b-tetrahydro-3H-[1]benzoxepino[4,5-b][1,4]thiazine-2,10-diamine 4,4-dioxide], the IC50 in test [1] (setting [4]) is 0.007 µM; in test [2] (setting [5]) it was 0.008 µM; on Cathepsin D (Cat D) (setting [6]) it was 304 µM.

For `Cc1cc(C(F)(F)F)cnc1C(=O)Nc1ccc2c(c1)[C@@]1(C)N=C(N)C(C)(C)S(=O)(=O)[C@]1(F)CCO2` [Example 93, N-((4aR,11bR)-2-amino-4a-fluoro-3,3,11b-trimethyl-4,4-dioxido-4a,5,6,11b-tetrahydro-3H-[1]benzoxepino[4,5-b][1,4]thiazin-10-yl)-3-methyl-5-(trifluoromethyl)-2-pyridinecarboxamide], the IC50 in test [1] (setting [4]) was found to be 0.011 µM; in test [2] (setting [5]) it was 0.054 µM; at Cathepsin D (Cat D) (setting [6]) it was 513 µM.

For the compound `CC#CCOc1cnc(C(=O)Nc2ccc3c(c2)[C@@]2(C)N=C(N)C(C)(C)S(=O)(=O)[C@@H]2CCC3)cn1` [Example 50, N-((4aR,11bR)-2-amino-3,3,11b-trimethyl-4,4-dioxido-3,4a,5,6,7,11b-hexahydrobenzo[3,4]cyclohepta[1,2-b][1,4]thiazin-10-yl)-5-(2-butyn-1-yloxy)-2-pyrazinecarboxamide], the IC50 came out at 0.0007 µM in test [1] (average IC50); 0.0002 µM in test [2] (HEK cell, average IC50); 120 µM on Cathepsin D (Cat D) (read-out: CatD IC50).

On to `Cc1cc(C(F)(F)F)cnc1C(=O)Nc1ccc2c(c1)[C@@]1(CF)N=C(N)C(C)(C)S(=O)(=O)[C@H]1C[C@H](C)O2` [Example 105, N-((4aS,6S,11bS)-2-amino-11b-(fluoromethyl)-3,3,6-trimethyl-4,4-dioxido-4a,5,6,11b-tetrahydro-3H-[1]benzoxepino[4,5-b][1,4]thiazin-10-yl)-3-methyl-5-(trifluoromethyl)-2-pyridinecarboxamide], for which the IC50 in test [1] (setting [4]) stood at 0.004 µM; in test [2] (setting [5]), 0.013 µM; on Cathepsin D (Cat D) (setting [6]) it was 1480 µM.

Consider `C[C@H]1C[C@@H]2[C@](C)(N=C(N)C(C)(C)S2(=O)=O)c2cc(NC(=O)c3cnc(OCc4ccn(C)n4)cn3)ccc2O1` [Example 82, N-((4aR,6S,11bR)-2-amino-3,3,6,11b-tetramethyl-4,4-dioxido-4a,5,6,11b-tetrahydro-3H-[1]benzoxepino[4,5-b][1,4]thiazin-10-yl)-5-((1-methyl-1H-pyrazol-3-yl)methoxy)-2-pyrazinecarboxamide], for which the IC50 in test [1] (setting [4]) was found to be 0.005 µM; in test [2] (setting [5]), 0.009 µM; at Cathepsin D (Cat D) (setting [6]) it was 583 µM.

As to `CC1(C)C(N)=N[C@]2(C)c3cc(NC(=O)c4ncc(C(F)(F)F)cc4Cl)ccc3OCC[C@H]2S1(=O)=O` [Example 25, N-((4aR,11bR)-2-amino-3,3,11b-trimethyl-4,4-dioxido-4a,5,6,11b-tetrahydro-3H-[1]benzoxepino[4,5-b][1,4]thiazin-10-yl)-3-chloro-5-(trifluoromethyl)-2-pyridinecarboxamide], the IC50 in test [1] (average IC50) is 0.007 µM; in test [2] (HEK cell, average IC50) it was 0.002 µM; at Cathepsin D (Cat D) (read-out: CatD IC50), 3530 µM; at Cathepsin D (Cat D) (setting [3]), above 1200 µM.

As for `CCCOc1cnc2c(Nc3ccc4c(c3)[C@@]3(C)N=C(N)C(C)(C)S(=O)(=O)[C@@H]3C[C@H](C)O4)nccc2n1` [Example 135, (4aR,6S,11bR)-3,3,6,11b-tetramethyl-N^~10^~-(2-propoxypyrido[3,4-b]pyrazin-5-yl)-4a,5,6,11b-tetrahydro-3H-[1]benzoxepino[4,5-b][1,4]thiazine-2,10-diamine 4,4-dioxide], the figures for the IC50 (in test [1] (setting [4]); in test [2] (setting [5]); on Cathepsin D (Cat D) (setting [6])) were 0.026 µM, 0.139 µM and 104 µM, respectively.

With `C[C@H]1C[C@@H]2[C@](C)(N=C(N)C(C)(C)S2(=O)=O)c2cc(Nc3nccc4nc(O)cnc34)ccc2O1` [Example 136, 5-(((4aR,6S,11bR)-2-amino-3,3,6,11b-tetramethyl-4,4-dioxido-4a,5,6,11b-tetrahydro-3H-[1]benzoxepino[4,5-b][1,4]thiazin-10-yl)amino)pyrido[3,4-b]pyrazin-2(1H)-one], the results for the IC50 (in test [1] (setting [4]); in test [2] (setting [5]); on Cathepsin D (Cat D) (setting [6])) were 0.025 µM, 0.016 µM and 247 µM, respectively.

For `CC1(C)C(N)=N[C@]2(C)c3cc(NC(=O)c4ncc(Cl)cc4Cl)ccc3CCC[C@@H]2S1(=O)=O` [Example 36, N-((4aS,11bR)-2-amino-3,3,11b-trimethyl-4,4-dioxido-3,4a,5,6,7,11b-hexahydrobenzo[3,4]cyclohepta[1,2-b][1,4]thiazin-10-yl)-3,5-dichloro-2-pyridinecarboxamide], the half-maximal inhibitory concentration (IC50) in test [1] (average IC50) was 0.062 µM; in test [2] (HEK cell, average IC50), 0.29 µM; at Cathepsin D (Cat D) (read-out: CatD IC50), above 400 µM.

Regarding `CC1(C)C(N)=N[C@]2(C)c3cc(NC(=O)c4ccc(OCC5CC5)cn4)ccc3OCC[C@H]2S1(=O)=O` [Example 175, N-((4aR,11bR)-2-amino-3,3,11b-trimethyl-4,4-dioxido-4a,5,6,11b-tetrahydro-3H-[1]benzoxepino[4,5-b][1,4]thiazin-10-yl)-5-(cyclopropylmethoxy)-2-pyridinecarboxamide], the IC50 in test [1] (average IC50) is 0.009 µM; in test [2] (HEK cells, average IC50), 0.017 µM; on Cathepsin D (Cat D) (read-out: CatD IC50), 1510 µM.

Regarding `CC1(C)C(N)=N[C@]2(C)c3cc(Nc4nccc5cc(Cl)cnc45)ccc3CCC[C@@H]2S1(=O)=O` [Example 34, (4aS,11bR)-N^~10^~-(3-chloro-1,7-naphthyridin-8-yl)-3,3,11b-trimethyl-3,4a,5,6,7,11b-hexahydrobenzo[3,4]cyclohepta[1,2-b][1,4]thiazine-2,10-diamine 4,4-dioxide], the IC50 in test [1] (average IC50) turned out to be 0.071 µM; in test [2] (HEK cell, average IC50) it was 0.464 µM; at Cathepsin D (Cat D) (read-out: CatD IC50) it was 409 µM.

With `CCc1cc(Cl)cnc1C(=O)Nc1ccc2c(c1)[C@@]1(C)N=C(N)C(C)(C)S(=O)(=O)[C@@H]1CCO2` [Example 31, N-((4aR,11bR)-2-amino-3,3,11b-trimethyl-4,4-dioxido-4a,5,6,11b-tetrahydro-3H-benzo[6,7]oxepino[4,5-b][1,4]thiazin-10-yl)-5-chloro-3-ethylpicolinamide], the IC50 in test [1] (average IC50) came to 0.015 µM; in test [2] (HEK cell, average IC50) it was 0.016 µM; on Cathepsin D (Cat D) (read-out: CatD IC50) it was 226 µM.

Take `Cc1cc(C(F)F)cnc1C(=O)Nc1ccc2c(c1)[C@@]1(C)N=C(N)C(C)(C)S(=O)(=O)[C@@H]1CCO2` [Example 163, N-((4aR,11bR)-2-amino-3,3,11b-trimethyl-4,4-dioxido-4a,5,6,11b-tetrahydro-3H-[1]benzoxepino[4,5-b][1,4]thiazin-10-yl)-5-(difluoromethyl)-3-methyl-2-pyridinecarboxamide]: the IC50 in test [1] (average IC50) was 0.005 µM; in test [2] (HEK cells, average IC50), 0.003 µM; on Cathepsin D (Cat D) (read-out: CatD IC50) it was above 400 µM.
